The source of these data is US5310916A, “Trifunctional agents useful as irreversible inhibitors of A1-adenosine receptors” (The United States of America as represented by the …, priority 1990, dated 1994).

Structures are written as SMILES. Values after ≈ are worked out from the molar mass of the structure shown.

The target in series [1] is T1, A2-adenosine receptors (Rattus norvegicus, UniProt P30543).
T1 construct: adenosine receptors in rat striatal membranes were measured as described; from tissue; host or cells: rat striatal membranes
As to the kind of experiment: Competitive binding assay at A2 receptors ([3H]CGS21680). To be noted: [3H]CGS21680, rat striatum; read-out: Ki at central rat receptors, A2. On the procedure: The Ki values (in nM) for A1 and A2 binding in rat striatum are presented in Table 4 with the relative selectivities expressed as the ratio of Ki values. […] Table 4 also indicates the synthesis method used for each compound therein.
(§1) A1 ligand = [^3 H]RPIA, A2 ligand = [^3 H]CGS21680
(§2) Inhibition of binding by a range of concentrations of an adenosine derivative was assessed in triplicate in at least three separate experiments. At least seven different concentrations spanning three orders of magnitude, adjusted appropriate for the IC50 of each compound were used. IC50 values Ci/mmol) or [^3 H]CGS21680. Inhibition of [^3 H]NECA binding of to A2 -adenosine receptors in rat striatal membranes were measured as described, except that 5 mM theophylline was used to define non-specific binding. N^6 -Cyclopentyladenosine was present at 50 nM to inhibit binding of the ligand at A1 -adenosine receptors. IC50 values were converted to Ki -values as described.

Series [2] has as its target T2, A1-adenosine receptors (Rattus norvegicus, UniProt P25099).
T2 construct: adenosine receptors in rat cerebral cortex membranes was assayed as described; from tissue; b141 says rat striatum
T2 sequence (P25099 1-326): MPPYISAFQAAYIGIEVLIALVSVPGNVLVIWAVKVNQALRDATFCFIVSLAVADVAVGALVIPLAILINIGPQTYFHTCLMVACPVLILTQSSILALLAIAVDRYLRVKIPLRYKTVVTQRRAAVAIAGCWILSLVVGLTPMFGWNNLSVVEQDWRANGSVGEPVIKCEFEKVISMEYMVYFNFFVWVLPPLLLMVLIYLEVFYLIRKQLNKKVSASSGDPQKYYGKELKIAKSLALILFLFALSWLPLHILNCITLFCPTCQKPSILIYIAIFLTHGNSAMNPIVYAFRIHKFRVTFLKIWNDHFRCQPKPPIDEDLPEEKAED
The series is described as follows: Competitive binding assay at A1 receptors ([3H]RPIA). Conditions: for Ki: [3H]RPIA, rat brain membranes, read-out: Ki at central rat receptors, A1; for A2/A1 ratio: ratio of Ki values A2/A1. On the procedure: Table 4 also indicates the synthesis method used for each compound therein.
as §1, §2

The nature of series [3]: Solubility of analogs in pH 7.2 phosphate buffer. To be noted: aqueous buffer; pH 7.2 phosphate buffer with DMSO, 2-3 h room temperature, absorbance at 310 nm, mean of 3. In kind it is physicochemical. As for the experimental part:
The method for determining the solubilities of the xanthines is detailed in the Experimental Section below.
Solubility of Analogs. To 675 uL of pH 7.2 phosphate buffer was added 25 uL of a DMSO solution (approx. 10 mM) of the xanthine to be assayed. This was stirred for one minutes by a vortex mixer then left at room temperature for 2-3 hours. In each case (except where noted) a fine precipitate resulted which was collected by centrifugation at the end of the waiting period. After the dissolution period, a 100 uL aliquot of the supernatant was added to 1.0 mL of methanol and the absorbance measured at 310 nm using an extinction coefficient of 28,180 for calculating the concentration. Each xanthine was assayed 3 times and the concentration represent the averages of these 3 determinations.

Series [4] addresses T2, A1-adenosine receptors. In kind it is binding. To be noted: 0.75 h; for inhibition at 0.02 µM: 20 nM. As for the experimental part:
The degree of irreversible binding was determined as previously described and the percent inhibition of selected compounds is presented in Table 5.
Irreversible Binding to Rat Brain. For studies of irreversible incorporation, membranes were prepared as described above and then incubated with the indicated (Tables I and II) concentration of ligand for 45 minutes at 37° C. […] Membranes were then suspended in Buffer A containing 10^-4 M 3-isobutyl-1-methylxanthine (IBMX) and incubated at 25° C. for 18 hours with shaking. Membranes were then washed twice with Buffer A, treated with adenosine deaminase as described above, and used in radioligand binding studies as described above.
The long treatment with IBMX was found necessary to remove all of the non-incorporated ligands from membranes. Multiple washes (up to 8) with buffer alone were insufficient to remove all the reversibly bound ligands.

T1 sequence (P30543 whole entry): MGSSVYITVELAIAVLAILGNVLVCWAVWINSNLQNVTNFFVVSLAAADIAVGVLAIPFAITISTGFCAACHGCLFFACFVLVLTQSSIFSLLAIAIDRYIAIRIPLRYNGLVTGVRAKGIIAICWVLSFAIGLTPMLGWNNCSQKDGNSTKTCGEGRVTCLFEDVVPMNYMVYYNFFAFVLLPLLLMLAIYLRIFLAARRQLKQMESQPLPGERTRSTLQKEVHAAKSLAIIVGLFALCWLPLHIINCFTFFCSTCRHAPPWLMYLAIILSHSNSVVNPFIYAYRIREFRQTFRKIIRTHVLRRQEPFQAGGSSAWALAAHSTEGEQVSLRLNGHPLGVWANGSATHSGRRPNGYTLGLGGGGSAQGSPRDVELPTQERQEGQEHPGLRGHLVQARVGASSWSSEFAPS

The Ki is the dissociation constant of the complex between target and ligand, obtained from inhibition or displacement. Take `CCCn1c(=O)c2[nH]c(-c3ccc(OCC(=O)NCCNC(=S)Nc4cc(N=C=S)cc(C(=O)OC(=O)c5cc(N=C=S)cc(N=C=S)c5)c4)cc3)nc2n(CCC)c1=O`: the inhibition constant (Ki) in series [1] was 493 ± 200 nM; in series [2], 45 ± 3.5 nM. Further, in series [2], the A2/A1 ratio stood at 11.

For the compound `CCCn1c(=O)c2[nH]c(-c3ccc(OCC(=O)NCCNC(=S)Nc4cc(N=C=S)cc(NC(=S)NCC(=O)OC(C)(C)C)c4)cc3)nc2n(CCC)c1=O`, the Ki in series [1] came out at 3290 nM. In series [2], the inhibitory constant (Ki) was 8.3 ± 2.2 nM and the A2/A1 ratio is recorded as 397.

As to `CCCn1c(=O)c2[nH]c(-c3ccc(OCC(=O)NCCNC(=S)Nc4cc(N=C=S)cc(NC(=S)NCCNc5ccc(N=[N+]=[N-])cc5[N+](=O)[O-])c4)cc3)nc2n(CCC)c1=O`, the Ki was found to be 842 nM in series [1] and 27.3 ± 7.2 nM in series [2]. Moreover, in series [2], the A2/A1 ratio is 31.

Take `CCCn1c(=O)c2[nH]c(-c3ccc(OCC(=O)NCCNC(=S)Nc4cc(N=C=S)cc(NC(=S)NCCNC(=O)c5ccc(N=[N+]=[N-])cc5O)c4)cc3)nc2n(CCC)c1=O`: the Ki was 341 nM in series [1] and 25.2 nM in series [2]. Besides, the A2/A1 ratio in series [2] is 14.

Usually solubility stands for the dissolved amount per volume that the medium holds. Turning to `CCCn1c(=O)c2[nH]c(-c3ccc(OCC(=O)NCCNC(=S)Nc4cccc(N=C=S)n4)cc3)nc2n(CCC)c1=O` [Compound 8, 1,3-Dipropyl-8-(4-(((((2-((((6-isothiocyanatopyrido)amino)thiocarbonyl)amino)ethyl)amino)carbonyl)methyl)oxy)phenyl)xanthine], in series [3], the solubility is 17.5 ± 0.06 µM (≈ 10.9 µg/mL). In addition, the Ki in series [1] came out at 432 ± 20 nM; in series [2], 16.2 ± 1.96 nM. For the same compound, the A2/A1 ratio in series [2] stood at 27.

`CCCn1c(=O)c2[nH]c(-c3ccc(OCC(=O)NCCNC(=S)Nc4cc(CO)cc(N=C=S)c4)cc3)nc2n(CCC)c1=O` [Compound 9, 1,3-Dipropyl-8-(4-(((((2-((((3-hydroxymethyl-5-isothiocyanatophenyl)amino)thiocarbonyl)amino)ethyl)amino)carbonyl)methyl)oxyl)phenyl)xanthine] gave a solubility in series [3] of 10.8 ± 0.03 µM (≈ 7.03 µg/mL). Moreover, the inhibitory constant (Ki) in series [1] was found to be 433 ± 45 nM. In series [2], the Ki was found to be 13.4 ± 2.64 nM and the A2/A1 ratio came to 32.

Take `CCCn1c(=O)c2[nH]c(-c3ccc(OCC(=O)NCCNC(=S)Nc4cc(N=C=S)cc(C(=O)OCC)c4)cc3)nc2n(CCC)c1=O` [Compound 11, 1,3-Dipropyl-8-(4-(((((2-((((3-carbethoxy-5-isothiocyanatophenyl)amino)thiocarbonyl)amino)ethyl)amino)carbonyl)methyl)oxyl)phenyl)xanthine]: the solubility in series [3] was 9.33 ± 0.43 µM (≈ 6.46 µg/mL). In series [1], the Ki was determined as 815 ± 145 nM. In addition, in series [2], the inhibition constant Ki amounted to 41.6 ± 8.2 nM and the A2/A1 ratio stood at 19.

A word on the inhibition: it is the percentage by which the read-out fell short of the control. Higher therefore signals strong suppression. In series [3], `CCCn1c(=O)c2[nH]c(-c3ccc(OCC(=O)NCCNC(=S)Nc4cc(N=C=S)cc(C(N)=O)c4)cc3)nc2n(CCC)c1=O` [Compound 13, 1,3-Dipropyl-8-(4-(((((2-((((3-carboxamide-5-isothiocyanatophenyl)amino)thiocarbonyl)amino)ethyl)amino)carbonyl)methyl)oxy)phenyl)xanthine] showed a solubility of 31.4 ± 0.39 µM (≈ 20.8 µg/mL). The inhibition constant Ki amounted to 365 ± 35 nM in series [1] and 9.47 ± 2.99 nM in series [2]. For the same compound, at 0.005 µM the inhibition in series [4] (5 nM) was 68 ± 7.5%. The compound further yielded an inhibition at 0.02 µM in series [4] of 90.3 ± 7%. In addition, the A2/A1 ratio in series [2] was determined as 39.

In series [3], `CCCn1c(=O)c2[nH]c(-c3ccc(OCC(=O)NCCNC(=S)Nc4cc(N=C=S)cc(C(=O)NCCN(C)C)c4)cc3)nc2n(CCC)c1=O` [Compound 14, 1,3-Dipropyl-8-(4-(((((2-((((3-(2-dimethylaminoethylcarboxamide)-5-isothiocyanatophenyl)amino)thiocarbonyl)amino)ethyl)amino)carbonyl)methyl)oxy)phenyl)xanthine] came in with a solubility of 28.7 ± 0.03 µM (≈ 21.1 µg/mL). Besides, the Ki in series [1] is 497 ± 74 nM; in series [2], 7.62 ± 2.19 nM. Moreover, the inhibition at 0.02 µM in series [4] is 30 ± 8.7%. The same compound returned an inhibition at 0.05 µM in series [4] (50 nM) of 46.3 ± 21.8%. Moreover, the A2/A1 ratio in series [2] was 65.

As for `CCCn1c(=O)c2[nH]c(-c3ccc(OCC(=O)NCCNC(=S)Nc4cc(N=C=S)cc(C(=O)NCCNC(C)=O)c4)cc3)nc2n(CCC)c1=O` [Compound 16, 1,3-Dipropyl-8-(4-(((((2-((((3-(2-acetylaminoethylcarboxamide)-5-isothiocyanatophenyl)amino)thiocarbonyl)amino)ethyl)amino)carbonyl)methyl)oxy)phenyl)xanthine], in series [3], the solubility was above 1000 µM. Moreover, in series [1], the Ki was determined as 247 ± 36 nM. In series [2], the Ki came to 7.01 ± 0.52 nM and the A2/A1 ratio came out at 35.

As to `CCCn1c(=O)c2[nH]c(-c3ccc(OCC(=O)NCCNC(=S)Nc4cc(N=C=S)cc(C(=O)NCCNC(=O)CCc5ccc(O)cc5)c4)cc3)nc2n(CCC)c1=O` [Compound 17], in series [1], the Ki was found to be 1400 nM. Besides, in series [2], the Ki was 7.08 ± 1.91 nM and the A2/A1 ratio is recorded as 198.

Turning to `CCCn1c(=O)c2[nH]c(-c3ccc(OCC(=O)NCCNC(=S)Nc4cc(N=C=S)cc(N=C=S)c4)cc3)nc2n(CCC)c1=O` [Compound 23, 1,3-Dipropyl-8-(4-(((((2-((((3,5-diisothiocyanatophenyl)amino)thiocarbonyl)amino)ethyl)amino)carbonyl)methyl)oxy)phenyl)-xanthine], the inhibitory constant (Ki) in series [1] stood at 3540 ± 936 nM. Also, in series [2], the inhibition constant (Ki) came out at 3.96 ± 0.59 nM and the A2/A1 ratio amounted to 894.

`CCCn1c(=O)c2[nH]c(-c3ccc(OCC(=O)NCCNC(=S)Nc4cc(N=C=S)cc(NC(=S)NCCN(C)C)c4)cc3)nc2n(CCC)c1=O` [Compound 24]: the Ki in series [1] worked out at 1910 ± 303 nM; in series [2], 77.2 ± 2.5 nM. In addition, the A2/A1 ratio in series [2] was 25.

Compound `CCCn1c(=O)c2[nH]c(-c3ccc(OCC(=O)NCCNC(=S)Nc4cc(N=C=S)cc(NC(=S)NCCNC(C)=O)c4)cc3)nc2n(CCC)c1=O` [Compound 25] had a solubility in series [3] above 100 µM. Also, in series [1], the Ki stood at 2540 ± 283 nM. Moreover, in series [2], the Ki was found to be 57.6 ± 15.7 nM and the A2/A1 ratio turned out to be 44.

In the case of `CCCn1c(=O)c2[nH]c(-c3ccc(OCC(=O)NCCNC(=S)Nc4cc(N=C=S)cc(C(=O)NCCNc5ccc([N+](=O)[O-])c6nonc56)c4)cc3)nc2n(CCC)c1=O` [R' = CONH(CH2)2 NH-NBD], the inhibitory constant (Ki) in series [1] amounted to 1330 nM; in series [2], 18.1 nM. For the same compound, in series [2], the A2/A1 ratio came to 73.

In the case of `CCCn1c(=O)c2[nH]c(-c3ccc(OCC(=O)NCCNC(=S)Nc4cc(N=C=S)cc(C(=O)NCCNC(=O)CCCC[C@@H]5SC[C@@H]6NC(=O)N[C@@H]65)c4)cc3)nc2n(CCC)c1=O` [R' = CONH(CH2)2 NHCO-biotin], the inhibition constant Ki in series [1] was 11500 nM. In series [2], the Ki was 20.1 ± 3.3 nM and the A2/A1 ratio worked out at 572.

As to `CCCn1c(=O)c2[nH]c(-c3ccc(OCC(=O)NCCNC(=S)Nc4cc(N=C=S)cc(C(=O)NCCNC(=O)CBr)c4)cc3)nc2n(CCC)c1=O` [R' = CONH(CH2)2 NHCOCH2 Br], the Ki in series [1] was determined as 688 nM; in series [2], 15.8 nM. The A2/A1 ratio in series [2] was 44.

For the compound `CCCn1c(=O)c2[nH]c(-c3ccc(OCC(=O)NCCNC(=S)Nc4cc(N=C=S)cc(NC(=S)NCCNC(=S)Nc5ccc(C(=O)O)c(-c6c7ccc(=O)cc-7oc7cc(O)ccc67)c5)c4)cc3)nc2n(CCC)c1=O` [R' = NHCSNH(CH2)2 NHCSNH-fluorescein], the Ki in series [1] stood at 1790 nM; in series [2] it was 234 ± 32.5 nM. The A2/A1 ratio in series [2] is recorded as 8.
